What was measured:
Type in all cases: cell-based, human
[1] = tested on: A549 (wt p53), H1299 (null p53), and H322J (mutant p53) lung cancer cells; assay: Apoptosis by propidium iodide staining and FACS in lung cancer cells; conditions: combination with 2-AP
Procedure: (§1) Apoptotic cells by propidium iodide staining and FACS analysis were measured. Cells were harvested, pelleted by centrifugation and resuspended in phosphate-buffered saline containing 50 μg/ml propidium iodide, 0.1% Triton X-100, and 0.1% sodium citrate. Samples were stored at 4° C. for 16 hours and vortexed prior to FACS analysis (Becton-Dickenson FACScan, Mountain View, Calif.; FL-3 channel). Cellular viability was assessed with the XTT assay by growing cells in 96-well plates at 100 μL volume/well. After treatment with Ad-mda7 or control vectors, cells were incubated with the tetrazolium salt XTT according to the Roche protocol (Roche Diagnostics, Mannheim, Germany). Viability was assessed spectrophotometrically on an enzyme-linked immunosorbent assay (ELISA) plate reader.
(§2) Apoptotic cells were measured by propidium iodide staining and FACS analysis. Cells were harvested, pelleted by centrifugation and resuspended in phosphate-buffered saline (PBS) containing 50 μg/ml propidium iodide, 0.1% Triton X-100, and 0.1% sodium citrate. Samples were stored at 4° C. for 16 hours and vortexed prior to FACS analysis (Becton-Dickenson FACScan, Mountain View, Calif.; FL-3 channel). Cellular viability was assessed with the XTT assay by growing cells in 96-well plates in 100 μl volume/well. […] Viability was assessed spectrophotometrically on an enzyme-linked immunosorbent assay (ELISA) plate reader.

[2] = tested on: A549 and H1299 lung cancer cell lines; assay: XTT cellular viability assay; conditions: 2-AP (10 mM) alone
Procedure: as §1, §2

[3] = tested on: eIF-2α protein synthesis inhibition; assay: Measurement of cellular protein synthesis; conditions: with 2-AP
Procedure: Cells were treated with Ad-mda7 or Ad-Luc for 48 hrs. Where indicated, cells were treated with 1 mM 2-AP for 48 hrs. Measurement of protein synthesis was performed as previously described (14). After treatment, approximately 1×10^6 cell equivalents were incubated with L-[U-^14C] amino acid mixture (Amersham, Piscataway, N.J.) at 2 μCi/ml for 10 min at 37° C. The reaction was terminated by the addition of 20% (wt/vol) trichloroacetic acid and the radioactivity in the acid-precipitable fraction was measured in a scintillation counter.

[4] = tested on: PKR; assay: Immunoblot and confocal analysis of PKR, PKR substrates and caspases; conditions: A549; immunoprecipitation; 10 mM 2-AP
Procedure: Forty-eight hours after transfection, cell extracts were prepared for immunoblot assays as previously described (Pataer et al, 2000). The following antibodies were used: Bc1-2, Bak, Bax, PKR (K-17), eIF-2α, β-actin, p38 (A-12), phosphospecific p38 (D-8), stat1 (C-136), phosphospecific stat1 (A-2), stat3 (F-2), phosphospecific stat3 (B-7), anti-Tyk2 (C-20) and phosphospecific anti-Tyk (PY-99) (Santa Cruz Biotechnology, Santa Cruz, Calif.); Caspase 3, caspase-9, caspase-8 and Bid (PharMingen , San Diego, Calif.) and the phosphospecific PKR [pT451] and eIF-2a [pS51] (BioSource International, Camarillo, Calif.). The polyclonal and monoclonal antibodies to MDA-7 were obtained from Introgen Therapeutics, Inc. (Houston, Tex.).
4×10^5 cells/well were grown on chamber slides overnight and infected with Ad-mda7, Ad-Luc or PBS. 48 hrs later cells were washed with PBS and fixed overnight in 4% paraformaldehyde. Cells were then permeabilized for 20 min at 4° C. with 0.2% triton-X10O and blocked with 5% normal horse serum and 1% normal goat serum. Rabbit polyclonal anti-MDA7 and mouse monoclonal anti-PKR(B-10) were incubated overnight at 4° C. and developed with Rhodamine or FITC goat anti-rabbit IgG for 30-45 min at 37° C. Cells were then visualized under confocal microscopy.

[5] = tested on: NF-κB; assay: NF-κB activation (electromobility shift assay)
Procedure: Studies were conducted to determine whether transgenic MDA-7 expression results in NF-κB activation, and to evaluate the role of NF-κB in protecting tumor cells from MDA-7 induced apoptosis.

[6] = tested on: H1299 cells; assay: MDA-7 secretion and trypan blue cytotoxicity with glycosylation and secretion inhibitors; conditions: for concentration that completely blocks secretion of MDA-7 protein: Ad-mda7 transduced H1299
Procedure: Since glycosylated proteins generally acquire sugars during sorting through the ER and Golgi apparatus, the effect of glycosylation and secretion inhibitors on MDA-7 intracellular processing and subsequent secretion was evaluated. Tunicamycin inhibits the addition of sugars to proteins within the ER, while brefeldin A inhibits vesicle transport of proteins from the ER to the Golgi. Both disrupt the secretion of proteins. The cytotoxicity caused by Ad-mda7 in the presence of these glycosylation and secretion inhibitors was evaluated. Tunicamycin and brefeldin A levels were titrated until inhibition of secretion of MDA-7 protein could be detected. As shown in FIGS. 26A and 26B, treatment of H1299 cells with 2 μg/ml tunicamycin completely blocks secretion of MDA-7 protein, whereas less than 1 μg/ml of brefeldin A is required for this effect. Note that blocking secretion using either drug results in substantial intracellular accumulation of MDA-7 protein. […] The enhanced killing may be due to the tunicamycin sensitizing cells to apoptotic death. […] Therefore, secreted MDA-7 protein is unable to induce killing in cancer cells and is not required for Ad-mda7 mediated apoptosis and eventual killing of cancer cells (FIG. 32B).

[7] = tested on: H1299 and A549 cells; assay: Mitochondrial membrane potential (TMRE) and apoptosis; conditions: Staurosporine 1 μM
Procedure: Apoptotic cells were measured by propidium iodide staining and FACS analysis. Cells were harvested, pelleted by centrifugation and resuspended in phosphate-buffered saline (PBS) containing 50 μg/ml propidium iodide, 0.1% Triton X-100, and 0.1% sodium citrate. Samples were stored at 4° C. for 16 hours and vortexed prior to FACS analysis (Becton-Dickenson FACScan, Mountain View, Calif.; FL-3 channel). Cellular viability was assessed with the XTT assay by growing cells in 96-well plates in 100 μl volume/well. On day one, cells were transduced with Ad-mda-7, Ad-p53 or control vectors. On day two, the cells were incubated with the tetrazolium salt XTT for 4 to 24 hours according to the Roche protocol (Roche Diagnostics, Mannheim, Germany). Viability was assessed spectrophotometrically on an enzyme-linked immunosorbent assay (ELISA) plate reader.
The potential-sensitive fluorochrome tetramethylrhodamine, ethylester, perchlorate (TMRE) (Molecular Probes, Eugene, Oreg.) was used to measure ΔΨm. Cells were incubated with 25 nM TMRE for 30 minutes at 37° C. in the dark, washed in PBS, and analyzed by FACS on the FL-2 channel (FACScan: Becton Dickinson, Mountain View, Calif.).

[8] = tested on: HUVEC and HMVEC cells; assay: Endothelial cell differentiation (tube formation) assay; conditions: HUVEC and HMVEC; 24 h
Procedure: Endothelial cell differentiation (tube formation) assays were done using an in vitro angiogenesis assay kit (Chemicon, Temecula, Calif.). Briefly, HUVEC and HMVEC cells were grown to 80% confluency, collected, resuspended in growth medium and plated at a concentration of 2×10^4 cells/well in a 96-well plate coated with matrigel (Chemicon, Temecula, Calif.). To the wells, varying concentrations of MDA-7 protein were added and incubated for 24 h at 37° C. Wells that were not treated with MDA-7 protein served as a negative control. The ability of sMDA-7 to inhibit tube formation was determined and quantitated by counting the number of tubes under bright field microscopy. All samples were tested in duplicate. For comparative studies using MDA-7 and endostatin (Calbiochem), cells were plated as described above and exposed to varying concentration of the proteins. […] All other experimental procedures were the same as described above.

Nc1ncc2[nH]cnc2n1.O=[N+]([O-])O [2-AP, 2-Aminopurine Nitrate Salt]
apoptosis induction and cell killing in cells treated with Ad-mda7 [1]: blocked apoptosis induction and cell killing in a dose dependent manner | cell viability [2]: no effect on cell viability | protein synthesis in Ad-mda7 treated cells [3]: reversal of eIF-2α protein synthesis inhibition | PKR and eIF-2α phosphorylation in Ad-mda7 treated cells [4]: attenuated PKR activation with inhibition of both PKR and eIF-2α phosphorylation

CC1=C(CC(=O)O)c2cc(F)ccc2/C1=C\c1ccc([S+](C)[O-])cc1 (stereo not drawn) [Sulindac]
TNF-mediated NF-κB activation [5]: inhibited TNF-mediated NF-κB activation in a dose-dependent manner | activation of the NF-κB pathway [5]: inhibited the activation of the NF-κB pathway

C[C@H]1CCC/C=C/[C@@H]2C[C@H](O)C[C@H]2[C@H](O)/C=C/C(=O)O1 [brefeldin A]
concentration that completely blocks secretion of MDA-7 protein [6]: less than 1 μg/ml

CN[C@@H]1C[C@H]2O[C@@](C)([C@@H]1OC)n1c3ccccc3c3c4c(c5c6ccccc6n2c5c31)C(=O)NC4 [staurosporine]
MMP changes and apoptosis ([7]; A549 cells): induces MMP changes and apoptosis | MMP changes and apoptosis ([7]; H1299 cells): able to induce MMP changes and the induction of apoptosis

endostatin [reference compound]
inhibition of endothelial tube formation [8]: the inhibitory effect by endostatin was not observed

tunicamycin
cell death, inhibitor alone ([6]; 2 μg/ml tunicamycin, trypan blue): did not induce death | concentration that completely blocks secretion of MDA-7 protein [6]: 2 µg/mL
